From paper PMC10141076, “Steroids and Fatty Acid Esters from Cyperus sexangularis Leaf and Their Antioxidant, Anti-Inflammatory and Anti-Elastase Properties” (Molecules, 2023)
Several values for one entry are separate records, joined by “and”; a condition that tells them apart may be missing. Equal values may be shown once. Marks after values point to notes of the source that are not given here.

Tests used:
[1] = DPPH spectrophotometric assay (radical scavenging); conditions: mean ± SEM, n = 3; 30 min, 37 °C, 515 nm
Method: This was performed by following a previously reported conventional method, with some modifications. Here, 0.5 mL of 0.1Mm DPPH radical in methanol was added to 0.5 mL of serially diluted CS-isolated compounds and L-ascorbic acid at 100.00, 50.00, 25.00, 12.50 and 6.25 µg/mL concentration range in triplicate. The reaction mixture was incubated in the dark at 37 °C for 30 min. The absorbance was measured at 515 nm on a microplate reader. The percentage inhibition of the radical was calculated thus: % DPPH inhibition=(ABScontrol−ABSsample/ABScontrol)×100 where ABSsample = Absorbance of test sample, while ABScontrol = Absorbance of negative control (2% DMSO).

[2] = Nitric oxide (NO) inhibition assay (sodium nitroprusside/Griess); conditions: mean ± SEM, n = 3; 540 nm
Method: The inhibitory effect of the isolated compounds against the NO radical was investigated using the method described by Jimoh et al.. The compounds were prepared in varying concentrations from 100.00–6.25 µg/mL. They were added to 0.2 Mm (2 mL) of sodium nitroprusside in triplicates.

[3] = Ferric reducing antioxidant power (FRAP) assay; conditions: ascorbic acid equivalent; mean ± SEM, n = 3; 700 nm
Method: The reducing antioxidant capacity of each isolated compound was evaluated according to the method of Kumar and Pandey, with some modifications. The compounds were dissolved in 2% DMSO and added to the mixture containing 0.25 mL of phosphate buffer (0.2 M; pH 6.6) and 0.25 mL of potassium ferricyanide [K3Fe(CN)6] (1% w/v). Standard compounds used were L (+)-Ascorbic acid. The resulting mixture was incubated at 50 °C for 20 min, followed by the addition of 0.25 mL of CCl3COOH (10% w/v) and then centrifuged at 3000 rpm for 10 min. The upper layer of the solution was mixed with 1 mL of 2% DMSO and the same amount and 0.5 mL of FeCl3 (0.1%, w/v). The experiment was conducted in triplicate, and absorbance was measured at 700 nm on a microplate reader against a blank sample of only phosphate buffer. Thus, the ferric reducing power of the isolated compounds at 100.00, 50.00, 25.00, 12.50 and 6.25 µg/mL concentration in methanol were determined as ascorbic acid equivalent (AAE) from the calibration curve of the positive control (L-ascorbic acid).

egg albumin = test: In vitro anti-inflammatory test: egg albumin denaturation (EAD) assay; type: biochemical, chicken
Method: The test was carried out using the egg albumin denaturation assay method reported by Chatterjee et al.. […] The mixture was incubated at 37 °C for 15 min away from direct light and thereafter boiled at 70 °C for 5 min in a thermostatic water bath. The resulting mixture was cooled, and the absorbance was measured at 655 nm on a microplate reader.

[4] = target: T1, porcine pancreatic elastase (PPE) (Sus scrofa, UniProt P00772); test: Anti-elastase assay (release of p-nitroaniline from N-succinyl-ala-ala-ala-p-nitroanilide); type: biochemical; conditions: n = 3; text says elastase in HaCaT cells, method uses PPE; read-out: Anti-Elastase Activity (IC50 ± SD) (converted)
T1 construct: purchased Sigma
Method: All reagents, solvents, silica gel for TLC and silica gel for column chromatography were purchased from Sigma-Aldrich (Pty) Ltd. (Johannesburg, South Africa) and Merck (Pty) Ltd. (Johannesburg, South Africa) through a licenced local supplier, Shalom Laboratories and Supplies, South Africa. Antioxidant absorbance were measured on a 680-Bio-Rad Microplate Reader (Serial Number 14966, Irvine, CA, USA), while the anti-elastase activity was monitored on a Perkin Elmer VICTOR Nivo microplate reader ([…]). Isolated compounds were analyzed with a 600 MHz Bruker Biospin GmbH spectrometer (Bruker, Rheinstetten, Germany) and a 400 MHz VARIAN NMR spectrometer (Agilent Technologies Inc., Santa Clara, CA, USA). Chemical shift (δ) was recorded in part per million (ppm). The spectrum range was set at 0–14 ppm for 1H NMR, while that of ^13C NMR was set at 0–220 ppm. Tetramethyl silane was used as the internal standard and compounds were read in deuterated chloroform and benzene, as well as benzene-d6 in trifluorotoluene (TFT). High-resolution mass spectrometry (HRMS) was performed with a Waters API Q-TOF Ultima spectrometer (Waters Corporation, Manchester, UK) situated in Stellenbosch University, Stellenbosch, South Africa. […]
The ability of each isolated compound to inhibit porcine pancreatic elastase (PPE) (Sigma) was determined by measuring the release of p-nitroaniline from N-succinyl-ala-ala-ala-p-nitroanilide spectrophotometrically at 405nm according to the method of Bieth et al. and modified according to the method of Fibrich et al.. The reaction mixture contained 100mM Tris buffer (pH 8.0), 0.5M HCl; the test sample was serially diluted in DMSO to yield seven concentrations ([…]) to which PPE ([…]) was added and incubated for 15 min, followed by the addition of N-succinyl-ala-ala-ala-p-nitroanilide (4mM). The change in the absorbance of the reaction mixture was measured for 15 min, from which the rate was obtained. One unit of elastastolytic activity is defined as the release of 1 µM of p-nitroaniline/min. Ursolic acid was included as the positive drug control, as well as a vehicle control containing 2% DMSO and two negative controls (one in which no enzyme was added and the other in which no substrate was added). An IC50, or concentration at which 50% of the enzyme activity is inhibited was calculated using GraphPad Prism 4 (GraphPad Software, San Diego, CA, USA).

T1 sequence (P00772 27-266): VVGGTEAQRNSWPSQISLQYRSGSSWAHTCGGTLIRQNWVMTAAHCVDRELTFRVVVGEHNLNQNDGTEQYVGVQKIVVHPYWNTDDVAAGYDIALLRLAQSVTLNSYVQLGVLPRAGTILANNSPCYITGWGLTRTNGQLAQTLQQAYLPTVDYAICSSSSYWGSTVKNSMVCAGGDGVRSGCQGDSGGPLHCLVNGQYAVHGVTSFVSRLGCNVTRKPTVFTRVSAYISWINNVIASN

## O=C1O[C@H]([C@@H](O)CO)C(O)=C1O [ASC, L-ascorbic acid, reference compound]
[1]
  DPPH (IC50 ± SEM): 8.92 ± 1.26 ^a µg/mL
[2]
  NO (IC50 ± SEM): 21.89 ± 1.32 ^a µg/mL

## C=CC(C)C1CCC2C1CCC1C3CCCCC3CCC12 (stereo not shown) [Compound 2, 17-(1-methyl-allyl)-hexadecahydro-cyclopenta[a] phenanthrene]
[1]
  DPPH (IC50 ± SEM): 57.63 ± 1.62 ^e µg/mL
[2]
  NO (IC50 ± SEM): 105.73 ± 7.48 ^d µg/mL
[3]
  FRAP: 196.21 ± 13.79 ^a µgAAE/mg
Egg albumin; across all concentrations (100–6.25 µg/mL), p < 0.05
  inhibition of egg albumin denaturation, rank in words: least active among all the compounds tested
[4]
  IC50: > 349 µM

## CCCCCCCCCCCCCCCCCC(=O)OCC [ethyl stearate]
[4]
  IC50: > 160 µM

## CCCCCCCCCCCCCCCCCCC(=O)OCC [ethyl nonadecanoate]
[4]
  IC50: > 153 µM

## CCCCCCCCCCCCCCCCCC(=O)OCC [Compound 6, ethyl stearate]
[1]
  DPPH (IC50 ± SEM): 49.86 ± 2.29 ^d µg/mL
[2]
  NO (IC50 ± SEM): 95.99 ± 4.93 ^d µg/mL
[3]
  FRAP: 190.92 ± 11.68 ^a µgAAE/mg
Egg albumin; at concentrations above 6.25 µg/mL
  inhibition of egg albumin denaturation, rank in words: least activity among the fatty acid compounds
[4]
  IC50: ≥ 160 µM

## CCCCCCCCCCCCCCCCCCC(=O)OCC [Compound 5, ethyl nonadecanoate]
[1]
  DPPH (IC50 ± SEM): 43.82 ± 1.44 ^c µg/mL
[2]
  NO (IC50 ± SEM): 69.74 ± 3.06 ^bc µg/mL
[3]
  FRAP: 243.40 ± 19.72 ^b µgAAE/mg
[4]
  IC50: ≥ 153 µM

## CC[C@H](CC[C@@H](C)[C@H]1CC[C@H]2[C@@H]3CC=C4C[C@@H](O)CC[C@]4(C)[C@H]3CC[C@]12C)C(C)C [Compound 3, β-sitosterol]
[4]
  IC50: > 121 µM

## CCCCCCCCCCCC(=O)O [Compound 4, dodecanoic acid]
[1]
  DPPH (IC50 ± SEM): 35.99 ± 2.13 ^b µg/mL
[2]
  NO (IC50 ± SEM): 65.04 ± 3.20 ^b µg/mL
[3]
  FRAP: 245.94 ± 22.81 ^b µgAAE/mg
[4]
  IC50: > 250 µM

## CC[C@H](C=C[C@@H](C)[C@H]1CC[C@H]2[C@@H]3CC=C4CC(O)CC[C@]4(C)[C@H]3CC[C@]12C)C(C)C (stereo partly shown) [Compound 1, stigmasta-5,22-dien-3-ol]
[1]
  DPPH (IC50 ± SEM): 38.18 ± 2.30 ^bc µg/mL
[2]
  NO (IC50 ± SEM): 68.56 ± 4.03 ^bc µg/mL
[3]
  FRAP: 303.58 ± 10.33 µgAAE/mg and 303.58 ± 10.33 ^c µgAAE/mg
Egg albumin; at 6.25 µg/mL (lowest concentration)
  inhibition of egg albumin denaturation: 51.03 ± 10.36%
Egg albumin; at 6.25 µg/mL (lowest concentration), listed as stigmasterol
  inhibition of egg albumin denaturation: 50%
Egg albumin; at 25 µg/mL (median concentration)
  inhibition of egg albumin denaturation: up to 70%
[4]
  IC50: > 121 µM

## C[C@H]1[C@H](C)CC[C@]2(C(=O)O)CC[C@]3(C)C(=CC[C@@H]4[C@@]5(C)CC[C@H](O)C(C)(C)[C@@H]5CC[C@]43C)[C@H]12 [Ursolic acid, ursolic acid, reference compound]
[4]
  IC50: 54.3 µM
